Series [1] is described as follows: Pharmacokinetics in mice after single intravenous injection. To be noted: male, C57, mouse, in vivo, iv. Set-up: species or system C57 mice. Here is the method:
Male C57 mice were used as test animals. The target compound was administered via a single intravenous injection, and the pharmacokinetic characteristics of the compound in C57 mice in vivo (plasma) were determined.
Male C57 mice, weighing approximately 25g, aged 4-6 weeks. After preparing the polypeptide compound solution using 1×PBS dissolving solution, the compound was administered intravenously at a dose of 200 nmol/kg, where each compound was administered to 3 animals. Blood samples of 60 µL were collected at 5 min, 15 min, 0.5 h, 1 h, 2 h, 4 h, 6 h, 24 h, 48 h and 72 h after the infusion was completed and transferred to centrifuge tubes containing EDTA-K2 anticoagulant. Whole blood samples were centrifuged at 4000 g for 5 min at 4°C. Plasma was separated and plasma samples were frozen and stored at -80 °C.
Sample pretreatment method: 30 µL of plasma samples was taken, and 120 µL of 0.1% formic acid in methanol containing 1 ng/mL internal standard verapamil was added. The mixture was vortexed for 5 min, and centrifuged at 10000 rpm for 10 min at low temperature. 70 µL of supernatant was taken, and 70 µL of water was added and mixed well. Analysis was performed by LC-MS instrument.
LC-MS analysis method: (1) chromatographic conditions: mobile phases A and B: 0.1% formic acid in water and 0.1% formic acid in acetonitrile, respectively; gradient elution mode; flow rate: 0.5 mL/min; injection volume: 10 µL; chromatographic column: nanomicro Unisil C18aq (4.6 mm × 150 mm, 5 µm); column temperature: 40°C. (2) Mass spectrometry conditions: For mass spectrometry, an electrospray ionization source (ESI), positive ion analysis mode, and multiple reaction monitoring (MRM) scanning mode were used.
For data processing, SCIEX OS (Version 2.1.6) software was used to quantify blood drug concentration data and PKSolver (Version 2.0) software was used to calculate pharmacokinetic parameters.

Another series has as its target T1, human GIPR (Homo sapiens, UniProt P48546).
T1 construct: expressed in transfected cells; host or cells: CHO-K1 clonal cell line
T1 sequence (P48546 22-466): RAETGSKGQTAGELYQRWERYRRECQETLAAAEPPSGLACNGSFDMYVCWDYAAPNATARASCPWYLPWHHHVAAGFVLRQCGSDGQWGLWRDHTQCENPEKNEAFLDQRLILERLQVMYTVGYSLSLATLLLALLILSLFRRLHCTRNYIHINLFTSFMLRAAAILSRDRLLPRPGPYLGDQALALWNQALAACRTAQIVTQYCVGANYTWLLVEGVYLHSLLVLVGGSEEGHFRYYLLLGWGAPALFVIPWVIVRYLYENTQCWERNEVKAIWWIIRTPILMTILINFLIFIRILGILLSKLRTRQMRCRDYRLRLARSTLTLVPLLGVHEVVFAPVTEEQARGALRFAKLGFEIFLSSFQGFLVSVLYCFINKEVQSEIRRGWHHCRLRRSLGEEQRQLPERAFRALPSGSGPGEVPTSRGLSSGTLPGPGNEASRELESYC
Description: cAMP HTRF agonist activity assay in CHO-K1 cells expressing GIPR. Also: 5% FBS, 0.1% Casein. The series is classed as cell-based. The settings on record: read-out: Activity against human GIPR (EC50 nM). How it is done:
Functional activity was determined in CHO-K1 clonal cell lines expressing GIPR, GLP-1R, and GCGR. […] Each recipient cell (5000 cells/well) was added to an SV 96-well plate (Cisbio, 66PL96025) and incubated with the prepared polypeptide at 37°Cfor 30 min. The resulting increase in intracellular cAMP was quantitatively measured using the cAMP-GS dynamic HTRF assay kit (Cisbio, 62AM4PEJ). Briefly, the intracellular cAMP levels were determined by adding cAMP-d2 conjugate in cell lysis buffer, followed by the antibody anti-cAMP-Eu cryptate (also in cell lysis buffer).
Using the maximum response percentage vs. the added polypeptide concentration, the relative EC50 values were derived through nonlinear regression analysis and fitted to a four-parameter logarithmic equation. For specific data, refer to Tables 7-1 to 7-8 below. […]

Starred links: 1 amine or outer side, 2 acyl side, 3 side chain; linkers in the order of their positions; H or OH if unused. Non-standard residues stand in square brackets, D forms with d. Residues, ends and D or L forms follow the SMILES beside them. Groups on a side chain read outwards from the residue. ξ: configuration not given here. *: point of attachment. C20 diacid = O=C(O)CCCCCCCCCCCCCCCCCCC(=O)*; γGlu = O=C(O)[C@H](CCC(=O)[*:2])N[*:1]; αMeL = CC(C)C[C@](C)(N)C(=O)O; ξαMeL = CC(C)CC(C)(N)C(=O)O; AEEA = NCCOCCOCC(=O)O; Aib = CC(C)(N)C(=O)O

In series [1], `CC[C@H](C)[C@H](NC(=O)[C@H](CO)NC(=O)[C@H](CC(C)C)NC(=O)[C@H](CC(=O)O)NC(=O)[C@H](CO)NC(=O)[C@@H](NC(=O)[C@H](Cc1ccccc1)NC(=O)[C@@H](NC(=O)CNC(=O)[C@H](Cc1c[nH]cn1)NC(=O)C(C)(C)NC(=O)[C@@H](N)Cc1c[nH]cn1)[C@@H](C)O)[C@@H](C)O)C(=O)N[C@@H](CC(C)C)C(=O)N[C@@H](CC(C)C)C(=O)N[C@@H](CCC(=O)O)C(=O)N[C@@H](CCCCNC(=O)COCCOCCNC(=O)COCCOCCNC(=O)CC[C@H](NC(=O)CCCCCCCCCCCCCCCCCCC(=O)O)C(=O)O)C(=O)N[C@@H](CCC(N)=O)C(=O)N[C@@H](C)C(=O)N[C@@H](C)C(=O)NC1(C(=O)N[C@@H](CCC(=O)O)C(=O)N[C@@H](Cc2ccccc2)C(=O)N[C@H](C(=O)N[C@@H](CCC(=O)O)C(=O)N[C@@H](Cc2c[nH]c3ccccc23)C(=O)N[C@@H](CC(C)C)C(=O)N[C@@H](CC(C)C)C(=O)N[C@@H](C)C(=O)N[C@H](CCC(=O)O)C(=O)NCC(=O)N2CCC[C@H]2C(=O)N[C@@H](CO)C(=O)N[C@@H](CO)C(=O)NCC(=O)N[C@@H](C)C(=O)N2CCC[C@H]2C(=O)N2CCC[C@H]2C(=O)N2CCC[C@H]2C(=O)N[C@@H](CO)C(N)=O)C(C)C)CCC1` [Compound 0145] gave a clearance of 7.74 mL/h/kg and a half-life of 7.7 h. For the same molecule, the EC50 on human GIPR came out at 0.003 nM.

In series [1], `CC[C@H](C)[C@H](NC(=O)[C@H](CO)NC(=O)[C@H](Cc1ccc(O)cc1)NC(=O)[C@H](CC(=O)O)NC(=O)[C@H](CO)NC(=O)[C@@H](NC(=O)[C@H](Cc1ccccc1)NC(=O)[C@@H](NC(=O)CNC(=O)[C@H](Cc1c[nH]cn1)NC(=O)C(C)(C)NC(=O)[C@@H](N)Cc1c[nH]cn1)[C@@H](C)O)[C@@H](C)O)C(=O)N[C@@](C)(CC(C)C)C(=O)N[C@@H](CC(C)C)C(=O)N[C@@H](CCC(=O)O)C(=O)N[C@@H](CCCCNC(=O)COCCOCCNC(=O)COCCOCCNC(=O)CC[C@H](NC(=O)CCCCCCCCCCCCCCCCCCC(=O)O)C(=O)O)C(=O)N[C@@H](CCCCN)C(=O)N[C@@H](C)C(=O)N[C@@H](C)C(=O)N[C@@H](CCC(N)=O)C(=O)N[C@@H](CCC(=O)O)C(=O)N[C@@H](Cc1ccccc1)C(=O)N[C@H](C(=O)N[C@@H](CCC(=O)O)C(=O)N[C@@H](Cc1c[nH]c2ccccc12)C(=O)N[C@@H](CC(C)C)C(=O)N[C@@H](CC(C)C)C(=O)N[C@@H](C)C(=O)N[C@H](CCC(=O)O)C(=O)NCC(=O)N1CCC[C@H]1C(=O)N[C@@H](CO)C(=O)N[C@@H](CO)C(=O)NCC(=O)N[C@@H](C)C(=O)N1CCC[C@H]1C(=O)N1CCC[C@H]1C(=O)N1CCC[C@H]1C(=O)N[C@@H](CO)C(N)=O)C(C)C` [Compound 0139] had a clearance of 4.86 mL/h/kg and a half-life of 11.9 h. At human GIPR, the EC50 came to 0.007 nM.

In series [1], `CC[C@H](C)[C@H](NC(=O)[C@H](CO)NC(=O)[C@H](CC(C)C)NC(=O)[C@H](CC(=O)O)NC(=O)[C@H](CO)NC(=O)[C@@H](NC(=O)[C@H](Cc1ccccc1)NC(=O)[C@@H](NC(=O)CNC(=O)[C@H](Cc1c[nH]cn1)NC(=O)C(C)(C)NC(=O)[C@@H](N)Cc1c[nH]cn1)[C@@H](C)O)[C@@H](C)O)C(=O)N[C@@](C)(CC(C)C)C(=O)N[C@@H](CC(C)C)C(=O)N[C@@H](CCC(=O)O)C(=O)N[C@@H](CCCCNC(=O)COCCOCCNC(=O)COCCOCCNC(=O)CC[C@H](NC(=O)CCCCCCCCCCCCCCCCCCC(=O)O)C(=O)O)C(=O)N[C@@H](CCCCN)C(=O)N[C@@H](C)C(=O)N[C@@H](C)C(=O)N[C@@H](CCC(N)=O)C(=O)N[C@@H](CCC(=O)O)C(=O)N[C@@H](Cc1ccccc1)C(=O)N[C@H](C(=O)N[C@@H](CCC(=O)O)C(=O)N[C@@H](Cc1c[nH]c2ccccc12)C(=O)N[C@@H](CC(C)C)C(=O)N[C@@H](CC(C)C)C(=O)N[C@@H](C)C(=O)N[C@H](CCC(=O)O)C(=O)NCC(=O)N1CCC[C@H]1C(=O)N[C@@H](CO)C(=O)N[C@@H](CO)C(=O)NCC(=O)N[C@@H](C)C(=O)N1CCC[C@H]1C(=O)N1CCC[C@H]1C(=O)N1CCC[C@H]1C(=O)N[C@@H](CO)C(N)=O)C(C)C` [Compound 0142] (H-H[Aib]HGTFTSDLSI[αMeL]LEK([AEEA-AEEA-γGlu-C20 diacid])KAAQEFVEWLLA[dE]GPSSGAPPPS-NH2) showed a clearance of 5.52 mL/h/kg and a half-life of 10.5 h. On human GIPR, the EC50 came to 0.007 nM.

With `CC[C@H](C)[C@H](NC(=O)[C@H](CO)NC(=O)[C@H](CC(C)C)NC(=O)[C@H](CC(=O)O)NC(=O)[C@H](CO)NC(=O)[C@@H](NC(=O)[C@H](Cc1ccccc1)NC(=O)[C@@H](NC(=O)CNC(=O)[C@H](Cc1c[nH]cn1)NC(=O)C(C)(C)NC(=O)[C@@H](N)Cc1c[nH]cn1)[C@@H](C)O)[C@@H](C)O)C(=O)NC(C)(CC(C)C)C(=O)N[C@@H](CC(C)C)C(=O)N[C@@H](CCC(=O)O)C(=O)N[C@@H](CCCCNC(=O)COCCOCCNC(=O)COCCOCCNC(=O)CC[C@H](NC(=O)CCCCCCCCCCCCCCCCCCC(=O)O)C(=O)O)C(=O)N[C@@H](CCCCN)C(=O)N[C@@H](C)C(=O)N[C@@H](C)C(=O)N[C@@H](CCC(N)=O)C(=O)N[C@@H](CCC(=O)O)C(=O)N[C@@H](Cc1ccccc1)C(=O)N[C@H](C(=O)N[C@@H](CCC(=O)O)C(=O)N[C@@H](Cc1c[nH]c2ccccc12)C(=O)N[C@@H](CC(C)C)C(=O)N[C@@H](CC(C)C)C(=O)N[C@@H](C)C(=O)NCC(=O)NCC(=O)N1CCC[C@H]1C(=O)N[C@@H](CO)C(=O)N[C@@H](CO)C(=O)NCC(=O)N[C@@H](C)C(=O)N1CCC[C@H]1C(=O)N1CCC[C@H]1C(=O)N1CCC[C@H]1C(=O)N[C@@H](CO)C(N)=O)C(C)C` (stereo partly shown) [Compound 0143] (H-H[Aib]HGTFTSDLSI[ξαMeL]LEK([AEEA-AEEA-γGlu-C20 diacid])KAAQEFVEWLLAGGPSSGAPPPS-NH2), in series [1], the clearance stood at 2.82 mL/h/kg and the half-life was 13.7 h. Moreover, the EC50 at human GIPR was determined as 0.004 nM.

Turning to `CC[C@H](C)[C@H](NC(=O)[C@H](CO)NC(=O)[C@H](CC(C)C)NC(=O)[C@H](CC(=O)O)NC(=O)[C@H](CO)NC(=O)[C@@H](NC(=O)[C@H](Cc1ccccc1)NC(=O)[C@@H](NC(=O)CNC(=O)[C@H](Cc1c[nH]cn1)NC(=O)C(C)(C)NC(=O)[C@@H](N)Cc1c[nH]cn1)[C@@H](C)O)[C@@H](C)O)C(=O)N[C@@H](CC(C)C)C(=O)N[C@@H](CC(C)C)C(=O)N[C@@H](CCC(=O)O)C(=O)N[C@@H](CCCCNC(=O)COCCOCCNC(=O)COCCOCCNC(=O)CC[C@H](NC(=O)CCCCCCCCCCCCCCCCCCC(=O)O)C(=O)O)C(=O)N[C@@H](CCCCN)C(=O)N[C@@H](C)C(=O)N[C@@H](C)C(=O)NC(C)(CC)C(=O)N[C@@H](CCC(=O)O)C(=O)N[C@@H](Cc1ccccc1)C(=O)N[C@H](C(=O)N[C@@H](CCC(=O)O)C(=O)N[C@@H](Cc1c[nH]c2ccccc12)C(=O)N[C@@H](CC(C)C)C(=O)N[C@@H](CC(C)C)C(=O)N[C@@H](C)C(=O)NCC(=O)NCC(=O)N1CCC[C@H]1C(=O)N[C@@H](CO)C(=O)N[C@@H](CO)C(=O)NCC(=O)N[C@@H](C)C(=O)N1CCC[C@H]1C(=O)N1CCC[C@H]1C(=O)N1CCC[C@H]1C(=O)N[C@@H](CO)C(N)=O)C(C)C` (stereo partly shown) [Compound 0136], the EC50 at human GIPR was determined as 0.001 nM.

Source of the values: patent EP4745153A1, “GLP-1, GIP AND GCG RECEPTOR […] USE THEREOF” (Jiangsu Hengrui Pharmaceuticals Co., Ltd., priority 2023, dated 2025).
